The values below come from paper PMC11157491, “Novel Alaninamide Derivatives with Drug-like Potential for Development as Antiseizure and Antinociceptive Therapies—In Vitro and In Vivo Characterization” (ACS Chemical Neuroscience, 2024).

Read-outs that look alike come from different tables or passages of the source.

Series [1] concerns mice. The experiment in a line: 6 Hz (32 mA) psychomotor seizure model. Type of series: in vivo. The following applies: Mus musculus, ip; for responders at 100 mg/kg: 100 mg/kg i.p., 0.5 h; for ED50: mice, pretreatment 0.5 h. The source says:
Identification and profiling of new ASM candidate compounds are still largely based on predictive animal models of seizures/epilepsy, while a range of in silico and in vitro approaches (i.e., molecular modeling or high throughput screening, etc.) are increasingly used in the early stages of ASM discovery.[31] The Epilepsy Therapy Screening Program (ETSP) of the National Institute of Neurological Disorders and Stroke (NIH, Bethesda, MD) has enabled the discovery of several approved ASMs by focusing on the in vivo testing of compounds synthesized by both academic laboratories and industry.[32] The ETSP provides a broad panel of seizure tests (ca. 30 rodent models), but a subset of them is used for the initial screening of new compounds with potential antiseizure activity. The routinely used seizure models include: (i) the MES test, which is an experimental model of tonic–clonic seizures, (ii) the 6 Hz model (32 mA) of focal seizures, and (iii) the scPTZ model of generalized absence or myoclonic seizures.[33],[34] Consequently, in the current studies, all final compounds 21–36 and 45–48 were initially studied in the MES and the 6 Hz (32 mA) seizure models after intraperitoneal (i.p.) administration at a screening dose of 100 mg/kg in mice at a time point of 0.5 h (the screening group consisted of four mice, and the results obtained are summarized in Table S1).
These parameters were then used to calculate the protective indexes (PIs, PI = TD50/ED50), which describe the therapeutics window of potential drug candidates. The ED50, TD50, and PI values for the tested compounds together with data of their chemical prototypes KA-11 and KJ-5 and reference ASMs are summarized in Table 2.
The adult male Albino Swiss mice weighed between 22 and 26 g were used in the in vivo studies. They were housed under standardized housing conditions in colony cages and had free access to food as well as tap water. The animals were left to adapt under laboratory conditions for 7 days. All procedures involving animals and their care were performed in accordance with the current European Community and Polish legislation on animal experimentation.
(§1) In the initial screening studies, four mice per group were randomly assigned to each experimental group (each mouse was used only once). To evaluate the ED50 or TD50 values, four groups consisting of eight animals were injected with various doses of tested compounds. The protective indexes (PIs) for the compounds investigated and reference ASMs were calculated by dividing the TD50 value, as determined in the chimney test, by the respective ED50 value, as determined in the MES, scPTZ, or 6 Hz (32 or 44 mA) tests (PI = TD50/ED50). The PIs are a measure of the potential therapeutic window of the tested agent.
All substances were suspended in Tween 80 (1% aqueous solution) and administered i.p. as a single injection at a dose of 10 mL/kg. On each day of experimentation, fresh solutions were prepared. The detailed in vivo procedures are described elsewhere: the maximal electroshock seizure test (MES),[60] the subcutaneous pentylenetetrazole seizure test (scPTZ),[61] the 6 Hz psychomotor seizure model (32 and 44 mA),[62] and the chimney test.[63] The reference ASMs were purchased from commercial suppliers: VPA (Sigma-Aldrich, St. Louis, MO), LCS, and LEV (UCB Pharma, Braine l’Alleud, Belgium).

In series [2] the test system is HepG2 cell line. The experiment in a line: HepG2 cell viability (hepatotoxicity). The note with it: for cell survival: HepG2, 100 μM; for concentration from which a statistically significant decrease of cell viability was observed: HepG2, 48 h. Type of series: cell-based, human. On the procedure: (§2) The in vitro safety tests were performed with the use of a hepatoma HepG2 cell line to estimate the hepatotoxic potential of the tested compounds.

A short description of series [3]: HepG2 cell viability (hepatotoxicity). The series is classed as cell-based, human. The note with it: human, HepG2 hepatoma cells; at 1.56 μM, 48 h; read-out: HepG2 viability (% of control ± SD). On the procedure: as §2
For series [4], the target named is T1, Cav1.2 (h) calcium ion channel (Homo sapiens, UniProt Q13936).
T1 construct: Eurofins (contract assay)
T1 sequence (Q13936 whole entry): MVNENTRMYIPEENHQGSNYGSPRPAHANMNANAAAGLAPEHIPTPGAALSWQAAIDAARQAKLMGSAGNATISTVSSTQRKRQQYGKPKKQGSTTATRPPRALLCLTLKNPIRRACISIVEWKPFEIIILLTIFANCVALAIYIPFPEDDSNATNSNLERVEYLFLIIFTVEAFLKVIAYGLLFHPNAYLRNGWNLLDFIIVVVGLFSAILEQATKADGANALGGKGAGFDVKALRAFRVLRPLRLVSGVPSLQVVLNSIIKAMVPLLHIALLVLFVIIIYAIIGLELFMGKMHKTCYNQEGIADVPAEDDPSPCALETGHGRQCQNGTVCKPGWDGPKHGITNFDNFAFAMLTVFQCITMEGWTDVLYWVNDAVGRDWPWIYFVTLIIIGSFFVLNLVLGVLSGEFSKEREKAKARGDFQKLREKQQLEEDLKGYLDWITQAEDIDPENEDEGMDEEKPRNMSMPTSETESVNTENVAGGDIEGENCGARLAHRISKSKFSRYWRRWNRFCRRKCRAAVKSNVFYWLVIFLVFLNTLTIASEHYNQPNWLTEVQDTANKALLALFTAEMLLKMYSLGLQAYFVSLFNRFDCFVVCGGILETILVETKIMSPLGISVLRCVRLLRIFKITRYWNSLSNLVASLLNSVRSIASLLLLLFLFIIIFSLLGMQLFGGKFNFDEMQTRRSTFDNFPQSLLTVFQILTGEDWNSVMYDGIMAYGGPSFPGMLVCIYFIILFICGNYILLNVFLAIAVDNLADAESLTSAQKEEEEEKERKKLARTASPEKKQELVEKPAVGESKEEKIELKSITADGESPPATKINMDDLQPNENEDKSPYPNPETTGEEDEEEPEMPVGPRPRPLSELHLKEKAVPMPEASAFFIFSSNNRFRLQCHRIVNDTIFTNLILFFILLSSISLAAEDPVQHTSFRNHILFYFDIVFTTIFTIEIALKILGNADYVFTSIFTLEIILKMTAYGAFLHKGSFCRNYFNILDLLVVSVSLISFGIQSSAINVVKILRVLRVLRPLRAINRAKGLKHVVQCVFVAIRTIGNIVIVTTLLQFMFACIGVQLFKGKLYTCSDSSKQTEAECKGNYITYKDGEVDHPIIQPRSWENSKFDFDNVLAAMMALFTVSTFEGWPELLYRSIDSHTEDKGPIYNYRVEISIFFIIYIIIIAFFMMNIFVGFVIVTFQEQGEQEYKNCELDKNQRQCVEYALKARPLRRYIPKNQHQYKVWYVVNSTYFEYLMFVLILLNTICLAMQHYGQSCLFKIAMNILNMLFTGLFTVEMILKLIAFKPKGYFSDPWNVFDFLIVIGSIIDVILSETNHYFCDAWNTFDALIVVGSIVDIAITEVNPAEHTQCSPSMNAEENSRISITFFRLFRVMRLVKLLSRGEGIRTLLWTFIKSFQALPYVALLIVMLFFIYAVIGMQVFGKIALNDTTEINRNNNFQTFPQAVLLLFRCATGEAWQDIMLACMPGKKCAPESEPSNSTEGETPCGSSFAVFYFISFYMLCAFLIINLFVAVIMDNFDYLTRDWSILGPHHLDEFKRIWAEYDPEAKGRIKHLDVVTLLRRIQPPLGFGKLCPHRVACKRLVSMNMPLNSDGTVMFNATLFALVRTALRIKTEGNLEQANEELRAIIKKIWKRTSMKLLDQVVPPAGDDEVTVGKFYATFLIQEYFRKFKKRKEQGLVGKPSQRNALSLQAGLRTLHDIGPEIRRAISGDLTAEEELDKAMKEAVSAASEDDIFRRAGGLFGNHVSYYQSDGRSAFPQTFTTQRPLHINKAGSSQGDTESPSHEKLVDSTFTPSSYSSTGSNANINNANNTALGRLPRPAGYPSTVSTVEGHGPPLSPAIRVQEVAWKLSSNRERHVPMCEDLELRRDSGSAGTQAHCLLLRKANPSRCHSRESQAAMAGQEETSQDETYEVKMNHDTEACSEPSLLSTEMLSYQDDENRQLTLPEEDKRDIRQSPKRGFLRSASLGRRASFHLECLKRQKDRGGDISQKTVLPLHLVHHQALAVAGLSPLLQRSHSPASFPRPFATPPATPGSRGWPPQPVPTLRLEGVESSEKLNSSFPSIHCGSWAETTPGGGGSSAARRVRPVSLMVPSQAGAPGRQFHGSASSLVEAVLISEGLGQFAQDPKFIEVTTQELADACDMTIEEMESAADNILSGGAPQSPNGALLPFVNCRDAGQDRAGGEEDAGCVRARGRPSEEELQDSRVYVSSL
T1 sequence (Q08289 whole entry partner): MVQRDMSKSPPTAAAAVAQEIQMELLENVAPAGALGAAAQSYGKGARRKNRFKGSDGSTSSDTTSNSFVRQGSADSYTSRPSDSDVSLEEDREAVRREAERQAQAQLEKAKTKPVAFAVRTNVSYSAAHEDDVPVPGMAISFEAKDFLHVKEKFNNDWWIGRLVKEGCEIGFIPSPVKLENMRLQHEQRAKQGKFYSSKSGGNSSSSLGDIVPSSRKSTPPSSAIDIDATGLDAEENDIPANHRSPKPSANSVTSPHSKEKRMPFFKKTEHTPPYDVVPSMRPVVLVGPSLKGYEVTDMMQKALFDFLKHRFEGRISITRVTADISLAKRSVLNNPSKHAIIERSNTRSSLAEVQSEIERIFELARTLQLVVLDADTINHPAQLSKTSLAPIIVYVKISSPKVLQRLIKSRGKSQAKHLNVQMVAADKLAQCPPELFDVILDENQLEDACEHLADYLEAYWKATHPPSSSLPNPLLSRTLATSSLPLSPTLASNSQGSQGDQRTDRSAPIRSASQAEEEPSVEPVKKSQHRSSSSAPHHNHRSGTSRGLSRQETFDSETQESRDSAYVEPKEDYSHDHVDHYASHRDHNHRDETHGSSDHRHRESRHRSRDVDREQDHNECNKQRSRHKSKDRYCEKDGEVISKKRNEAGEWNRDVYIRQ
T1 sequence (P54289 25-956 partner limits assumed): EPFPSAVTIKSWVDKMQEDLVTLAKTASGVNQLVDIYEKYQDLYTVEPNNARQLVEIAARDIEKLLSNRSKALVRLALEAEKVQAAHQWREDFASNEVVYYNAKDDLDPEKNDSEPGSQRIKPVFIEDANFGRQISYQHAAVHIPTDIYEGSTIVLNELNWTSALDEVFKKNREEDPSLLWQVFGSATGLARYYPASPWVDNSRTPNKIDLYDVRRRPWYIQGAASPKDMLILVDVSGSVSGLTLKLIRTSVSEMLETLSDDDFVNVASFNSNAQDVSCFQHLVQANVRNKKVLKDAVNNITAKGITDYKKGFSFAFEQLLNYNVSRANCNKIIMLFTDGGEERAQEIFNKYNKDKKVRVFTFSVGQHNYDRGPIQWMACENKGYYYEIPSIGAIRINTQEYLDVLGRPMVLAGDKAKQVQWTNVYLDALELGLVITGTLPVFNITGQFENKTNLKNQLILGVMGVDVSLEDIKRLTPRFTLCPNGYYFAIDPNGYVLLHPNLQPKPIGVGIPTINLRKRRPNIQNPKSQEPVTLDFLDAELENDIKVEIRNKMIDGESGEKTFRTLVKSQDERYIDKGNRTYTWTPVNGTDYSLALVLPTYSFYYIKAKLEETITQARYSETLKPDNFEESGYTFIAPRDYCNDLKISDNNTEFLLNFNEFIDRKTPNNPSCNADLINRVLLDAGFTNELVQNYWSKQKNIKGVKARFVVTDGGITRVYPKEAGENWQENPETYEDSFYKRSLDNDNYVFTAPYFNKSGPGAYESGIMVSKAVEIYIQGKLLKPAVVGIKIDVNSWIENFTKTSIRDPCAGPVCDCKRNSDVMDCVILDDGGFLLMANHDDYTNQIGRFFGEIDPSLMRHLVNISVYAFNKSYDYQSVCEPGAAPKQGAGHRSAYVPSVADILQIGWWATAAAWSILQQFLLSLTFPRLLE
T1 sequence (P54289 957-1103 partner limits assumed): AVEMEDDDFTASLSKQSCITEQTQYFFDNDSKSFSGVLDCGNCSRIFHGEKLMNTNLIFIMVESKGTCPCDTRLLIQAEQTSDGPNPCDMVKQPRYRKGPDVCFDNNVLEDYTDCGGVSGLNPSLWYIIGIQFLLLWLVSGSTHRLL
Nature of the series: Cav1.2 cell-based antagonist calcium flux assay. The note with it: HEK293, human recombinant HEK-293 cell, read-out: % inhibition of control agonist response. The protocol: Importantly, sodium or calcium conductance is often associated with the pathophysiology of epilepsy as well as neuropathic pain.[46]−[50] Therefore, both sodium and calcium ion channels are well-established molecular targets for structurally diverse ASMs such as LCS, lamotrigine, carbamazepine, oxcarbazepine, etc.[51] Consequently, we carried out binding and/or functional studies toward the sodium channel (site 2) and calcium Cav1.2 channel at high concentrations (100 μM) of 26 and 28 (Table 5). […] Next, 26 and 28 due to the presence of the phenylpiperazine moiety, which is a well-recognized pharmacophore for serotoninergic receptor (5-HTxR) ligands,[52] were evaluated for their influence on 5-HT2CR, where stimulation plays a key role for the antiseizure activity of lorcaserin (one of the newest ASMs).[6]
Binding/functional studies were carried out commercially in Eurofins Laboratories (Poitiers, France) and Eurofins Panlabs Discovery Services Taiwan, Ltd. (New Taipei City, Taiwan) using testing procedures that were reported previously (for details, see Table S2).
Table S2. Radioligand binding and functional assays. […]
Cav1.2 (L-type) (h) calcium ion channel cell-based antagonist calcium flux assay […]
Assays were performed commercially in Eurofins Laboratories ( Poitiers, France) or Eurofins Panlabs Discovery Services
Taiwan, Ltd. (New Taipei City, Taiwan).
In general terms: Calcium assays in cells follow changes in intracellular calcium, usually with a dye or a luminescent sensor.

The subject of series [5] is human liver microsomes (HLMs). Nature of the series: Metabolic stability in human liver microsomes. The series is classed as in vitro ADME. An excerpt: Molecular mass Molecular mass of the
Substrate (m/z) metabolite (m/z) Metabolic pathway
* Reference unstable drug; metabolic stability determined using the same procedure published previously
(Liver microsomes are a subcellular fraction often used to study metabolism.)

The test system of series [6] is HSA and AGP. The experiment in a line: in vitro. The note with it: human, plasma.
Experimental: (§3) The plasma protein binding: human serum albumin (HSA) and α1-acid glycoprotein (AGP) was evaluated by the commercial TRANSIL^XL PPB assay.
Series [7] concerns mice. Nature of the series: 6 Hz (44 mA) model of pharmacoresistant seizures. Type of series: in vivo. The note with it: Mus musculus, ip, pretreatment 0.5 h. On the procedure:
Based on the promising pharmacological data for 26 and 28, and especially potent protection in the 6 Hz (32 mA) seizure model, both compounds were tested subsequently in the 6 Hz seizure model, applying a higher current intensity of 44 mA (Table 3). Importantly, this test is recognized as one of the key animal models of pharmacoresistant seizures, utilized in the early stage of new ASMs’ development.
as §1
All substances were suspended in Tween 80 (1% aqueous solution) and administered i.p. as a single injection at a dose of 10 mL/kg. On each day of experimentation, fresh solutions were prepared. […]

Series [8] deals with human serum albumin (HSA) and α1-acid glycoprotein (AGP).
Experimental: as §3
Setting [9] is: four mice, read-out: protection in 6 Hz (32 mA) screening.
Where [10] appears, read: read-out: 6 Hz (32 mA): number of mice protected/number of mice tested (converted).

Usually ED50 stands for the dose that gives a 50% effect, or the effect in half of the subjects. Broadly, the viability is a read-out of living cells in per cent, often relative to untreated cells. The term inhibition denotes the relative decrease from the control value, in per cent. Broadly, the fraction unbound is the share of the substance not bound to proteins or other matrix. Low values mean little free substance, high ones much free substance. With `CC(=O)NC(C)C(=O)N1CCN(c2cccc(C(F)(F)F)c2)CC1` (stereo not drawn) [Compound 26, N-(1-oxo-1-(4-(3-(Trifluoromethyl)phenyl)piperazin-1-yl)propan-2-yl)acetamide], in series [1] (setting [9]), the responders at 100 mg/kg worked out at 100%. Also, the responders at 100 mg/kg in series [1] (setting [10]) is 100%. The ED50 in series [1] was 15.6 mg/kg. Also, in series [2], the cell survival result is listed as “approximately 40%” and the “concentration from which a statistically significant decrease of cell viability was observed” value is 12.5 µM. The viability at 48 h, 1.56 µM in series [3] came out at 104 ± 8.8%. The inhibition at 100 µM in series [4] came to 7%. In series [5], the “number of metabolites found after incubation with HLMs” value is recorded as “two”. Also, in series [5] (MS supported by MetaSite), the “metabolic pathway of metabolite M1” value was “dehydrogenation and oxidation”; the “metabolic pathway of metabolite M2” value is “dehydrogenation and oxidation”. The fraction unbound in series [6] is 0.214. Also, in series [7], the ED50 stood at 29.9 mg/kg. The “plasma protein binding—KD” value in series [8] was 1.67 mM.
Regarding `CC(=O)NC(C)C(=O)N1CCN(c2cccc(OC(F)(F)F)c2)CC1` (stereo not drawn) [Compound 28, N-(1-oxo-1-(4-(3-(Trifluoromethoxy)phenyl)piperazin-1-yl)propan-2-yl)acetamide], the responders at 100 mg/kg in series [1] (setting [9]) was 100%. Also, the responders at 100 mg/kg in series [1] (setting [10]) was 100%. Also, the ED50 in series [1] was determined as 12.1 mg/kg. In series [2], the cell survival entry is “approximately 40%” and the “concentration from which a statistically significant decrease of cell viability was observed” value stood at 25 µM. For the same compound, the viability at 48 h, 1.56 µM in series [3] amounted to 88.2 ± 16.1%. Moreover, the inhibition at 100 µM in series [4] is -7.9%. The “number of metabolites found after incubation with HLMs” value in series [5] is “three”. Besides, in series [5] (MS supported by MetaSite), the “metabolic pathway of metabolite M1” value is “double dehydrogenation”, the “metabolic pathway of metabolite M2” value was “hydroxylation” and the “metabolic pathway of metabolite M3” value is on record as “double dehydrogenation”. This compound had an unbound share (fraction unbound) in series [6] of 0.17. Also, in series [7], the ED50 was 29.5 mg/kg. Moreover, the “plasma protein binding—KD” value in series [8] amounted to 1.26 mM.
